Some test systems named below: COLO 205 colon; MOLT-4 leukemia; OVCAR-5 ovarian; RXF 393 renal; SK-MEL-2 melanoma; SNB-19 CNS; SNB-75 CNS; SW-620 colon; UACC-62 melanoma; UO-31 renal.
Experiment in all cases: NCI anticancer screen, dose series, 48 h

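Method: 48-hour compound exposure of cells in 96-well plates, five concentrations, linear interpolation of endpoints. TGI: concentration producing complete growth inhibition.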 A value given as a limit tells only on which side of the number the result lay.

Consider `COC(=O)[C@](C)(Cc1ccccc1)NC(=O)[C@@H](C)N1[C@@H](c2ccccc2)COC1(C)C`, for which the TGI in the experiment with COLO 205 colon was 52.2 µM; with MOLT-4 leukemia it was more than 100 µM; in the experiment with OVCAR-5 ovarian, more than 100 µM; in the experiment with RXF 393 renal it was more than 100 µM; in the experiment with SK-MEL-2 melanoma, more than 100 µM; in the experiment on SNB-19 CNS it was more than 100 µM. Besides, the TGI in the experiment on SNB-75 CNS is 75.8 µM; in the experiment with SW-620 colon it was more than 100 µM; in the experiment with UACC-62 melanoma, more than 100 µM; with UO-31 renal it was more than 100 µM.
`CC(C)(C)C(=O)N1CCN(C=O)C1=S`: the TGI with COLO 205 colon is more than 100 µM; in the experiment with MOLT-4 leukemia, more than 100 µM; in the experiment with OVCAR-5 ovarian, more than 100 µM; with RXF 393 renal, 81.9 µM; in the experiment with SK-MEL-2 melanoma it was more than 100 µM; with SNB-19 CNS it was more than 100 µM. For the same compound, the TGI in the experiment with SNB-75 CNS is 90.6 µM; in the experiment on SW-620 colon, more than 100 µM; in the experiment on UACC-62 melanoma, more than 100 µM; with UO-31 renal it was 60.2 µM.
In the case of `Cc1nc2cccc(F)c2c(=O)n1-c1nnc(C(F)(F)F)s1`, the TGI in the experiment with COLO 205 colon, in the experiment on MOLT-4 leukemia, in the experiment on OVCAR-5 ovarian, in the experiment on RXF 393 renal, in the experiment on SK-MEL-2 melanoma and in the experiment with SNB-19 CNS was more than 10 µM in each case. Also, the TGI in the experiment with SNB-75 CNS, with SW-620 colon, in the experiment on UACC-62 melanoma and with UO-31 renal was more than 10 µM in each case.
With `CC1=CC[C@](C)(O)[C@@]2(C)CC[C@H]3C(=C(C)C)C(=O)C[C@]3(C)C[C@H]12`, the TGI in the experiment on COLO 205 colon is more than 50 µM; with MOLT-4 leukemia it was 25.7 µM; in the experiment on OVCAR-5 ovarian, more than 50 µM; in the experiment on RXF 393 renal, more than 50 µM; in the experiment on SK-MEL-2 melanoma, more than 50 µM; with SNB-19 CNS, more than 50 µM. Further, the TGI is more than 50 µM in the experiment with SNB-75 CNS, more than 50 µM in the experiment with SW-620 colon, 47.1 µM with UACC-62 melanoma and more than 50 µM in the experiment on UO-31 renal.
`COC(=O)c1cc(C)ccc1/C=C1\Cc2c(C)cc(C)cc2C1=O`: the TGI in the experiment on COLO 205 colon is more than 100 µM; in the experiment with MOLT-4 leukemia, more than 100 µM; in the experiment with OVCAR-5 ovarian, more than 100 µM; with RXF 393 renal it was 44.5 µM; with SK-MEL-2 melanoma it was 63.7 µM; with SNB-19 CNS, 52.8 µM. Besides, the TGI in the experiment with SNB-75 CNS is 35.5 µM; with SW-620 colon, more than 100 µM; with UACC-62 melanoma it was 65.1 µM; in the experiment with UO-31 renal it was more than 85.8 µM.
As to `COC(=O)/C=C1\C(=O)C=C2[C@@H]3C[C@H]4C[C@H](CC[C@@]4(C)N21)C3(C)NC(C)=O` (stereo not given in full), the TGI was more than 36.8 µM with COLO 205 colon; 34.3 µM in the experiment with MOLT-4 leukemia; 35.7 µM with OVCAR-5 ovarian; more than 39.9 µM in the experiment with RXF 393 renal; 38.9 µM in the experiment on SK-MEL-2 melanoma; more than 56.7 µM in the experiment on SNB-19 CNS. The TGI in the experiment with SNB-75 CNS is 27.4 µM; in the experiment on SW-620 colon it was 24.7 µM; in the experiment on UACC-62 melanoma, 35 µM; with UO-31 renal it was more than 52.4 µM.
Take `CCN1CCCn2c(=O)[nH]c3cc(Br)cc1c32`: the TGI with COLO 205 colon was more than 100 µM; with MOLT-4 leukemia, more than 100 µM; in the experiment with OVCAR-5 ovarian, more than 100 µM; in the experiment with RXF 393 renal it was 54.6 µM; in the experiment on SK-MEL-2 melanoma it was more than 100 µM; in the experiment with SNB-19 CNS it was more than 100 µM. The TGI in the experiment on SNB-75 CNS was 43.2 µM; in the experiment on SW-620 colon, more than 100 µM; with UACC-62 melanoma, more than 100 µM; in the experiment on UO-31 renal, more than 100 µM.
On to `COc1ccc(NC(=O)CC(=O)N2N=C(N(c3ccccc3)c3ccccc3)CC2c2ccccc2)cc1` (stereo not given), for which the TGI in the experiment on COLO 205 colon, with MOLT-4 leukemia, in the experiment on OVCAR-5 ovarian, with RXF 393 renal, in the experiment with SK-MEL-2 melanoma and with SNB-19 CNS was more than 100 µM in each case. In addition, the TGI with SNB-75 CNS, in the experiment with SW-620 colon, with UACC-62 melanoma and in the experiment on UO-31 renal was more than 100 µM each time.
With `CCOC(=O)CCC(NC(=O)OCc1ccccc1)C(=O)NC(CCC(=O)OCC)C(=O)NC(CCC(=O)OCC)C(=O)NNC(=O)OC(C)(C)C` (stereo not given), the TGI with COLO 205 colon, with MOLT-4 leukemia, in the experiment on OVCAR-5 ovarian, in the experiment on RXF 393 renal, with SK-MEL-2 melanoma and in the experiment with SNB-19 CNS was more than 100 µM each time. In addition, the TGI with SNB-75 CNS, in the experiment on SW-620 colon, in the experiment on UACC-62 melanoma and in the experiment on UO-31 renal was more than 100 µM in each case.
As to `CCOC(=O)c1c(N)sc2c1C(C(=O)OCC)CCC2` (stereo not given), the TGI with COLO 205 colon, with MOLT-4 leukemia, in the experiment with OVCAR-5 ovarian, in the experiment with RXF 393 renal, in the experiment on SK-MEL-2 melanoma and with SNB-19 CNS was more than 100 µM throughout. Besides, the TGI in the experiment with SNB-75 CNS, in the experiment on SW-620 colon, with UACC-62 melanoma and in the experiment on UO-31 renal was more than 100 µM in each case.
Consider `COc1cc(C)cc2c(-c3c(O)cc(O)c4c3C[C@H](C)N[C@H]4C)cc(-c3cc(-c4c(O)cc(O)c5c4C[C@H](C)N[C@H]5C)c4cc(C)cc(OC)c4c3O)c(O)c12`, for which the TGI in the experiment on COLO 205 colon, in the experiment with MOLT-4 leukemia, in the experiment on OVCAR-5 ovarian, with RXF 393 renal, in the experiment with SK-MEL-2 melanoma and in the experiment on SNB-19 CNS was more than 100 µM throughout. In addition, the TGI with SNB-75 CNS, with SW-620 colon, in the experiment on UACC-62 melanoma and in the experiment with UO-31 renal was more than 100 µM in each case.
Consider `COc1cc2oc(-c3ccc4c(c3)OCO4)c(OC)c(=O)c2c(O)c1OC`, for which the TGI in the experiment with COLO 205 colon, in the experiment with MOLT-4 leukemia, with OVCAR-5 ovarian, in the experiment on RXF 393 renal, in the experiment with SK-MEL-2 melanoma and with SNB-19 CNS was more than 50 µM in each case. In addition, the TGI with SNB-75 CNS, in the experiment with SW-620 colon, in the experiment with UACC-62 melanoma and in the experiment with UO-31 renal was more than 50 µM throughout.
`COC(=O)c1cc(C)ccc1C1CN=NC12Cc1c(C)cc(C)cc1C2=O` (stereo not given): the TGI in the experiment on COLO 205 colon was 31.4 µM; with MOLT-4 leukemia it was 56.2 µM; in the experiment on OVCAR-5 ovarian, more than 100 µM; in the experiment on RXF 393 renal, 72.5 µM; in the experiment on SK-MEL-2 melanoma, 33.1 µM; in the experiment on SNB-19 CNS it was more than 100 µM. Besides, the TGI was 66.8 µM in the experiment on SNB-75 CNS, more than 100 µM with SW-620 colon, 49.6 µM in the experiment on UACC-62 melanoma and more than 100 µM with UO-31 renal.
Regarding `COC1(OC)C=CC(=O)C=C1`, the TGI in the experiment with COLO 205 colon is 28.1 µM; with MOLT-4 leukemia, more than 95.2 µM; with OVCAR-5 ovarian, more than 41.6 µM; in the experiment with RXF 393 renal, 4.51 µM; in the experiment with SK-MEL-2 melanoma, 21.5 µM; in the experiment with SNB-19 CNS, 30.2 µM. In addition, the TGI was 26.9 µM with SNB-75 CNS, 3.12 µM in the experiment with SW-620 colon, 4.08 µM in the experiment with UACC-62 melanoma and 4.22 µM in the experiment on UO-31 renal.
With `Cc1c(C#N)c(=N)oc2ccccc12`, the TGI in the experiment with COLO 205 colon, in the experiment on MOLT-4 leukemia, with OVCAR-5 ovarian, in the experiment with RXF 393 renal, in the experiment on SK-MEL-2 melanoma and with SNB-19 CNS was more than 100 µM each time. Further, the TGI in the experiment with SNB-75 CNS, in the experiment with SW-620 colon, in the experiment with UACC-62 melanoma and in the experiment on UO-31 renal was more than 100 µM throughout.
Take `Clc1nc2c(C#Cc3ccccc3)ncnc2n1C1CCCCO1` (stereo not given): the TGI turned out to be 32.7 µM with COLO 205 colon; 51.2 µM in the experiment with MOLT-4 leukemia; 25.9 µM in the experiment with OVCAR-5 ovarian; 26.9 µM in the experiment on RXF 393 renal; 31.5 µM in the experiment on SK-MEL-2 melanoma; 37.3 µM in the experiment on SNB-19 CNS. Moreover, the TGI with SNB-75 CNS is more than 100 µM; with SW-620 colon, 55.3 µM; in the experiment with UACC-62 melanoma, 27 µM; in the experiment with UO-31 renal, 25.1 µM.
Consider `Cc1cn(CCOCCOC(=O)NC(CCCNC(N)=O)C(=O)O)c(=O)[nH]c1=O` (stereo not given), for which the TGI in the experiment on COLO 205 colon, in the experiment with MOLT-4 leukemia, in the experiment with OVCAR-5 ovarian, in the experiment on RXF 393 renal, in the experiment on SK-MEL-2 melanoma and in the experiment with SNB-19 CNS was more than 100 µM throughout. The TGI in the experiment with SNB-75 CNS, in the experiment on SW-620 colon, in the experiment with UACC-62 melanoma and with UO-31 renal was more than 100 µM throughout.
Consider `CCN(CC)C1Oc2cc3c(cc2C(c2cc(OC)c(OC)c(OC)c2)C1C)OCO3` (stereo not given), for which the TGI in the experiment with COLO 205 colon is 4.8 µM; in the experiment on MOLT-4 leukemia, 13.1 µM; with OVCAR-5 ovarian, more than 47.8 µM; with RXF 393 renal it was more than 44.1 µM; in the experiment on SK-MEL-2 melanoma it was 11.7 µM; with SNB-19 CNS, more than 53 µM. The TGI with SNB-75 CNS was more than 69.9 µM; with SW-620 colon it was more than 63.1 µM; with UACC-62 melanoma, 98.5 µM; in the experiment with UO-31 renal, more than 46.7 µM.
Regarding `NC1c2c(Cl)sc(Cl)c2C(=O)C1O` (stereo not given), the TGI was 44.4 µM in the experiment on COLO 205 colon; 57.5 µM in the experiment on MOLT-4 leukemia; more than 100 µM in the experiment on OVCAR-5 ovarian; 25.7 µM in the experiment on RXF 393 renal; more than 100 µM in the experiment with SK-MEL-2 melanoma; more than 100 µM with SNB-19 CNS. For the same compound, the TGI with SNB-75 CNS was more than 100 µM; in the experiment with SW-620 colon, 50.5 µM; with UACC-62 melanoma, 43.7 µM; in the experiment with UO-31 renal, more than 100 µM.
Regarding `CC1CN=C(c2ccc(CN3CCC(C4CCN(Cc5ccc(C6=NCC(C)N6)cc5)CC4)CC3)cc2)N1` (stereo not given), the TGI is 41.3 µM in the experiment on COLO 205 colon; 46.5 µM with MOLT-4 leukemia; 65.1 µM in the experiment on OVCAR-5 ovarian; 33.5 µM with RXF 393 renal; 36 µM in the experiment with SK-MEL-2 melanoma; 75.8 µM in the experiment with SNB-19 CNS. Further, the TGI in the experiment with SNB-75 CNS stood at 31.1 µM; in the experiment on SW-620 colon, 43.1 µM; with UACC-62 melanoma, 41.7 µM; with UO-31 renal it was 58.4 µM.

(Values after PubChem BioAssay (NCI).)
